Laboratory results from publication PMC3608651, “A Broad Profile of Co-Dominant Epitopes Shapes the Peripheral Mycobacterium tuberculosis Specific CD8+ T-Cell Immune Response in South African Patients with Active Tuberculosis” (PLoS ONE, 2013).
Where two headings read alike, the source gives them in different places.

Columns and labels:
Type in all cases: binding
HLA-A*02:01 = HLA-A*02:01 (Homo sapiens, UniProt P04439, D140Y/D185E/D98H/E176V/E277Q/G131W/G231S/I119V/I121R/I166T/I218V/L300P/L318F/N151K/N90K/P208A/P217A/Q86G/Q94H/R138H/R169H/T345S); conditions: plate-bound monomer 0.5 µg/ml, duplicated experiments, positive binder >40%
HLA-A*24:02 = HLA-A*24:02 (Homo sapiens, UniProt P04439, D101N/D140Y/D185E/E176V/E190D/F33S/G103R/G107R/I119L/I121M/I306V/K335N/L105A/L180Q/L300P/N151K/N90K/Q86E/Q94H/R106L/R138H/R89G/T104I/T345S/V100E/W191G/Y123F); conditions: duplicated experiments, positive binder >40%
HLA-A*30:01 = HLA-A*30:01 (Homo sapiens, UniProt P04439, D140H/D185E/E176W/F33S/G80R/H175R/K168Q/R138E/R41S); conditions: duplicated experiments, positive binder >40%
HLA-A*30:02 [1] = biological target: T1, HLA-A*30:02 (Homo sapiens, UniProt P04439, D101N/D140H/D185E/E176R/F33S/G80R/H175R/K168Q/Q94H/R138E/R41S/V100E); conditions: duplicated experiments, positive binder >40%
HLA-A*68:01 [2] = biological target: T2, HLA-A*68:01 (Homo sapiens, UniProt P04439, A269V/D185E/E176V/E277Q/E87N/F33Y/G231S/I121M/I166T/I218V/L180W/L300P/L318F/N151K/P208A/P217A/Q86R/R169H/T345S); conditions: duplicated experiments, positive binder >40%
HLA-A*68:01 [3] = biological target: T2, HLA-A*68:01
HLA-A*68:01 [4] = biological target: T2, HLA-A*68:01; conditions: time points 0-8 h
HLA-B*07:02 = HLA-B*07:02 (Homo sapiens, UniProt P01889); conditions: percent relative the binding of positive control peptide […]; duplicated experiments; positive binder >40%
HLA-B*58:01 [5] = biological target: T3, HLA-B*58:01 (Homo sapiens, UniProt P01889, A329T/C349S/D201E/D98Y/E176V/E187L/E204Q/E69T/G107R/I218V/I90N/K202T/L105A/L119I/N104I/N87E/Q89R/Q94S/R106L/R155S/R180L/R86G/S101N/S121R/S35A/S48A/T118I/V127L/V306I/V36M/Y140S/Y91M); conditions: duplicated experiments, positive binder >40%
HLA-C*07:01 = HLA-C*07:01 (Homo sapiens, UniProt P10321, K90N/S123Y); conditions: duplicated experiments, positive binder >40%
HLA-A*30:02 [6] = biological target: T1, HLA-A*30:02
HLA-A*30:02 [7] = biological target: T1, HLA-A*30:02; conditions: time points 0-8 h
HLA-B*58:01 [8] = biological target: T3, HLA-B*58:01
HLA-B*58:01 [9] = biological target: T3, HLA-B*58:01; conditions: time points 0-8 h
[10] = percent relative the binding of positive control peptide […]
[11] = percent relative the binding of positive control peptide FLPSDFFPSV
[12] = percent relative the binding of positive control peptide RYLKDQQLL
[13] = percent relative the binding of positive control peptide KTKDIVNGL
[14] = percent relative the binding of positive control peptide KIQNFRVYY
[15] = percent relative the binding of positive control peptide KTGGPIYKR
[16] = peptide titrated 10−4 to 10−9 M
[17] = percent relative the binding of positive control peptide IAMESIVIW
[18] = percent relative the binding of positive control peptide KYFDEHYEY

Row | Substance | Bind A*02:01 (HLA-A*02:01; [10]) | Bind A*24:02 (HLA-A*24:02; [10]) | Bind A*30:01 (HLA-A*30:01; [10]) | Bind A*30:02 (HLA-A*30:02 [1]; [10]) | Bind A*68:01 (HLA-A*68:01 [2]; [10]) | Aff A*68:01 (ED50) (HLA-A*68:01 [3]) | O-rate A*68:01 (t1/2) (HLA-A*68:01 [4]) | Bind B*07:02 (HLA-B*07:02) | Bind B*58:01 (HLA-B*58:01 [5]; [10]) | Bind C*07:01 (HLA-C*07:01; [10]) | Aff B*58:01 (ED50) (HLA-B*58:01 [8]) | O-rate B*58:01 (t1/2) (HLA-B*58:01 [9]) | also measured
1 | LPQW LSANR | 6% | 26% | 29% | 0% | 167% | 6E -08 M | 4.1 h | 31% | 0% | 0% |  |  | 
2 | NTMAMMARD [Rv0288_79–87] |  |  |  |  | 67% | 7e-05 M | 2.3 h |  | 0% | 0% |  |  | 
3 | EAYQGVQQK [Rv3875_49–57] |  |  |  |  |  |  | 7.5 h | 10% |  |  |  |  | Bind A*02:01 (HLA-A*02:01; [11]): 0%; Bind A*24:02 (HLA-A*24:02; [12]): 0%; Bind A*30:01 (HLA-A*30:01; [13]): 0%; Bind A*30:02 (HLA-A*30:02 [1]; [14]): 0%; Bind A*68:01 (HLA-A*68:01 [2]; [15]): 74%; Aff A*68:01 (ED50) (HLA-A*68:01 [3]; [16]): 4e-08 M; Bind B*58:01 (HLA-B*58:01 [5]; [17]): 0%; Bind C*07:01 (HLA-C*07:01; [18]): 0%
4 | NGT HSWEYW | 0% | 42% | 0% | 83% | 35% |  |  | 4% | 74% | 3% | 4E -08 M | 114 min | Aff A*30:02 (ED50) (HLA-A*30:02 [6]): 1000 nM; O-rate A*30:02 (t1/2) (HLA-A*30:02 [7]): 1.6 h
5 | EANTMAMMA [Rv0288_77–85] |  |  |  |  | 83% | 0.0007 M | 1.9 h |  | 0% | 3% |  |  | 
6 | SLTKLAAAW [Rv3875_35–43] |  |  |  |  |  |  |  | 5% |  |  |  | 54 min | Bind A*02:01 (HLA-A*02:01; [11]): 47%; Bind A*24:02 (HLA-A*24:02; [12]): 12%; Bind A*30:01 (HLA-A*30:01; [13]): 6%; Bind A*30:02 (HLA-A*30:02 [1]; [14]): 50%; Bind A*68:01 (HLA-A*68:01 [2]; [15]): 10%; Bind B*58:01 (HLA-B*58:01 [5]; [17]): 48%; Aff B*58:01 (ED50) (HLA-B*58:01 [8]; [16]): 4e-07 M; Bind C*07:01 (HLA-C*07:01; [18]): 8%
7 | AGCQTYKW E | 12% | 31% | 3% | 18% | 4% |  |  | 2% | 121% | 0% | 2e-07 M | 120 min | 
8 | WGAQLNAMK | 7% | 0% | 0% | 67% | 153% | 3E -07 M | 2.4 h | 0% | 0% | 5% |  |  | 
9 | LTKLAAAWG [Rv3875_36-44] |  |  |  |  |  |  |  | 6% |  |  |  | 72 min | Bind A*02:01 (HLA-A*02:01; [11]): 15%; Bind A*24:02 (HLA-A*24:02; [12]): 0%; Bind A*30:01 (HLA-A*30:01; [13]): 13%; Bind A*30:02 (HLA-A*30:02 [1]; [14]): 0%; Bind A*68:01 (HLA-A*68:01 [2]; [15]): 21%; Bind B*58:01 (HLA-B*58:01 [5]; [17]): 47%; Aff B*58:01 (ED50) (HLA-B*58:01 [8]; [16]): 7e-07 M; Bind C*07:01 (HLA-C*07:01; [18]): 13%
10 | RAYHSMSST [Rv0288_67–75m1] |  |  |  | 7% |  |  |  | 14% | 32% | 0% | 2e-08 M | 24 min | 
11 | DW YSPACGK | 10% | 0% | 11% | 0% | 136% | 2E -07 M | 0.6 h | 0% | 0% | 0% |  |  | 
12 | TMAMMARDT [Rv0288_80–88] |  |  |  |  | 47% | 6e-05 M | 2.7 h |  | 0% | 0% |  |  | 
13 | EAAASAIQG [Rv3875_12–20] |  |  |  |  |  |  | 0.8 h | 5% |  |  |  |  | Bind A*02:01 (HLA-A*02:01; [11]): 0%; Bind A*24:02 (HLA-A*24:02; [12]): 0%; Bind A*30:01 (HLA-A*30:01; [13]): 0%; Bind A*30:02 (HLA-A*30:02 [1]; [14]): 0%; Bind A*68:01 (HLA-A*68:01 [2]; [15]): 59%; Aff A*68:01 (ED50) (HLA-A*68:01 [3]; [16]): 8e-07 M; Bind B*58:01 (HLA-B*58:01 [5]; [17]): 0%; Bind C*07:01 (HLA-C*07:01; [18]): 0%
14 | SSFYSDWYS | 53% | 0% | 0% | 72% | 103% | 1e-07 M | 0.1 h | 0% | 0% | 1% |  |  | 
15 | AAGGHNAVF | 31% | 34% | 15% | 67% | 0% |  |  | 9% | 101% | 39% | 2e-07 M | 42 min | 
16 | ETFLTSELP | 25% | 2% | 4% | 0% | 103% | 7e-07 M | 0.1 h | 5% | 16% | 0% |  |  | 
17 | MAMMARDTA [Rv0288_81–89] |  |  |  |  | 96% | 5e-06 M | 2.0 h |  | 23% | 19% |  |  | 
18 | QAALQSAWQ [Rv0288_36–44] |  |  |  |  | 17% |  |  |  | 62% | 7% | 5e-05 M | 30 min | 
19 | SAWQGDTGI [Rv0288_41–49] |  |  |  |  | 30% |  |  |  | 46% | 12% | 3e-08 M | 36 min | 
20 | SSTHEANTM [Rv0288_73–81] |  |  |  |  | 0% |  |  |  | 41% | 7% | 2e-06 M | 48 min | 
21 | GITYQAWQA [Rv0288_48–56] |  |  |  |  | 0% |  |  |  | 46% | 0% | 9e-08 M | 12 min | 
22 | ANTMAMMAR [Rv0288_78–86] |  |  |  |  | 147% | 3e-06 M | 2.4 h |  | 0% | 12% |  |  | 
